Experimental data: the NIST ThermoML archive (doi:10.1007/s10765-005-8590-7)

Experiment: xn = mol fraction of the nth substance listed
Details: Fluid (supercritical or subcritical phases), Constant-volume piezometry

N [ammonia] + O
Details	mass density [kg/m3]
253.18 K, 483.5 kPa, x1 = 0.1386	956.4
254.14 K, 619.3 kPa, x1 = 0.1386	956.35
257.06 K, 1159.1 kPa, x1 = 0.1386	956.19
259.15 K, 1375.1 kPa, x1 = 0.1086	964.04
259.15 K, 1646.6 kPa, x1 = 0.1386	956.07
260.13 K, 3144.3 kPa, x1 = 0.0999	971.4
260.15 K, 1417.1 kPa, x1 = 0.1086	963.99
260.15 K, 3759 kPa, x1 = 0.0955	968.65
261.02 K, 2146.1 kPa, x1 = 0.1386	955.96
261.14 K, 1483.6 kPa, x1 = 0.1086	963.95
261.15 K, 3146.8 kPa, x1 = 0.0999	971.36
261.15 K, 3737.1 kPa, x1 = 0.0955	968.61
262.12 K, 3739.8 kPa, x1 = 0.0955	968.57
262.15 K, 1572 kPa, x1 = 0.1086	963.9
262.15 K, 3173.9 kPa, x1 = 0.0999	971.31
263.13 K, 1676.5 kPa, x1 = 0.1086	963.85
263.13 K, 1686.6 kPa, x1 = 0.1086	963.85
263.13 K, 3221.1 kPa, x1 = 0.0999	971.27
263.16 K, 3225.1 kPa, x1 = 0.0999	971.27
263.16 K, 3766.5 kPa, x1 = 0.0955	968.52
263.96 K, 16220 kPa, x1 = 0.0606	987.12
264.11 K, 3813.7 kPa, x1 = 0.0955	968.48
264.14 K, 3297.9 kPa, x1 = 0.0999	971.22
264.15 K, 1824.1 kPa, x1 = 0.1086	963.8
265 K, 16117 kPa, x1 = 0.0606	987.08
265.13 K, 3469.4 kPa, x1 = 0.1386	955.71
265.15 K, 1981.7 kPa, x1 = 0.1086	963.75
265.15 K, 3396.5 kPa, x1 = 0.0999	971.17
265.15 K, 3889.7 kPa, x1 = 0.0955	968.43
265.18 K, 5311.9 kPa, x1 = 0.0644	979.94
265.38 K, 8334.6 kPa, x1 = 0.064	980.35
265.62 K, 811.9 kPa, x1 = 0.0591	975.65
265.99 K, 16054 kPa, x1 = 0.0606	987.04
266.12 K, 16223 kPa, x1 = 0.047	989.78
266.14 K, 745.3 kPa, x1 = 0.0591	975.64
266.14 K, 8277 kPa, x1 = 0.064	980.32
266.15 K, 2619 kPa, x1 = 0.0582	979.8
266.63 K, 698.1 kPa, x1 = 0.0591	975.62
267.09 K, 4204.5 kPa, x1 = 0.1386	955.58
267.13 K, 2495.5 kPa, x1 = 0.0582	979.77
267.14 K, 8221.5 kPa, x1 = 0.064	980.28
267.15 K, 298 kPa, x1 = 0.1436	952.4
267.15 K, 2355.6 kPa, x1 = 0.1086	963.64
267.15 K, 3654.7 kPa, x1 = 0.0999	971.07
267.15 K, 16033 kPa, x1 = 0.047	989.74
267.16 K, 634.7 kPa, x1 = 0.0591	975.6
267.17 K, 5193.7 kPa, x1 = 0.0644	979.87
268.02 K, 15974 kPa, x1 = 0.0606	986.96
268.1 K, 7316.4 kPa, x1 = 0.0513	984.85
268.15 K, 723.3 kPa, x1 = 0.1436	952.33
268.17 K, 2415.7 kPa, x1 = 0.0582	979.73
268.17 K, 15948 kPa, x1 = 0.047	989.7
269 K, 15979 kPa, x1 = 0.0606	986.92
269.1 K, 7244.1 kPa, x1 = 0.0513	984.81
269.1 K, 7256.7 kPa, x1 = 0.0513	984.81
269.11 K, 500.6 kPa, x1 = 0.0591	975.52
269.14 K, 2812.6 kPa, x1 = 0.1086	963.53
269.14 K, 5179.9 kPa, x1 = 0.0644	979.78
269.15 K, 1141.1 kPa, x1 = 0.1436	952.26
269.15 K, 4001.7 kPa, x1 = 0.0999	970.97
269.15 K, 8192.6 kPa, x1 = 0.064	980.19
269.15 K, 8194.7 kPa, x1 = 0.064	980.19
269.17 K, 15892 kPa, x1 = 0.047	989.66
269.18 K, 4424 kPa, x1 = 0.0955	968.23
269.19 K, 2364.1 kPa, x1 = 0.0582	979.69
269.2 K, 5071.6 kPa, x1 = 0.1386	955.44
270.13 K, 15862 kPa, x1 = 0.047	989.62
270.14 K, 4346.8 kPa, x1 = 0.0302	991.12
270.15 K, 1609 kPa, x1 = 0.1436	952.18
270.15 K, 7195.1 kPa, x1 = 0.0513	984.77
270.15 K, 15862 kPa, x1 = 0.047	989.62
270.99 K, 16062 kPa, x1 = 0.0606	986.82
271.11 K, 15856 kPa, x1 = 0.047	989.57
271.12 K, 467.5 kPa, x1 = 0.0591	975.44
271.13 K, 15857 kPa, x1 = 0.047	989.57
271.14 K, 3349.5 kPa, x1 = 0.1086	963.41
271.15 K, 2091.5 kPa, x1 = 0.1436	952.11
271.15 K, 3960.4 kPa, x1 = 0.014	996.21
271.15 K, 7177.2 kPa, x1 = 0.0513	984.72
271.15 K, 8265.9 kPa, x1 = 0.064	980.1
271.16 K, 4437.7 kPa, x1 = 0.0999	970.85
271.17 K, 4208.2 kPa, x1 = 0.0302	991.09
271.17 K, 5274.3 kPa, x1 = 0.0644	979.69
271.18 K, 2339.7 kPa, x1 = 0.0582	979.6
271.18 K, 4814.2 kPa, x1 = 0.0955	968.12
272.15 K, 3778.7 kPa, x1 = 0.014	996.18
272.15 K, 4113.5 kPa, x1 = 0.0302	991.05
272.15 K, 7185.7 kPa, x1 = 0.0513	984.68
272.15 K, 15879 kPa, x1 = 0.047	989.53
273.13 K, 4952 kPa, x1 = 0.0999	970.74
273.14 K, 506.6 kPa, x1 = 0.0591	975.35
273.14 K, 4040.3 kPa, x1 = 0.0302	991.01
273.14 K, 16263 kPa, x1 = 0.0606	986.71
273.15 K, 2431.2 kPa, x1 = 0.0582	979.51
273.15 K, 3104.4 kPa, x1 = 0.1436	951.96
273.15 K, 3633.6 kPa, x1 = 0.014	996.14
273.15 K, 3634.2 kPa, x1 = 0.014	996.14
273.15 K, 3935 kPa, x1 = 0.1086	963.29
273.15 K, 7219.4 kPa, x1 = 0.0513	984.63
273.15 K, 8435.9 kPa, x1 = 0.064	980.01
273.17 K, 15928 kPa, x1 = 0.047	989.48
274.14 K, 16000 kPa, x1 = 0.047	989.44
274.15 K, 3992.2 kPa, x1 = 0.0302	990.97
274.15 K, 7279.5 kPa, x1 = 0.0513	984.59
274.99 K, 16547 kPa, x1 = 0.0606	986.61
275.08 K, 7892.7 kPa, x1 = 0.1386	955.03
275.13 K, 677.5 kPa, x1 = 0.0591	975.25
275.14 K, 2612.8 kPa, x1 = 0.0582	979.41
275.15 K, 3430.4 kPa, x1 = 0.014	996.07
275.15 K, 3431.2 kPa, x1 = 0.014	996.07
275.15 K, 3970.2 kPa, x1 = 0.0302	990.93
275.15 K, 4178.5 kPa, x1 = 0.1436	951.81
275.15 K, 4633.1 kPa, x1 = 0.1086	963.16
